Reference: US20220226338A1, “Methods of Treating Cancer Using CHK1 Inhibitors” (Sierra Oncology, Inc., priority 2019, published 2022)
Where two headings read alike, the source gives them in different places.

Key:
Chk1 autophosphorylation = experiment: In vitro Chk1 inhibition after genotoxic chemotherapy (autophosphorylation, checkpoint arrest, cytotoxicity potentiation); assay type: cell-based
Single dose PK, rat = assay type: in vivo; settings: Rat oral 10 mg/kg single dose
Description: Several studies have been conducted to evaluate the PK properties of SRA737, such as the absorption (in vitro permeability assays and in vivo PK following IV and oral administration), distribution (in vivo tissue distribution and in vitro plasma protein binding) and metabolism (in vitro hepatocyte and CYP inhibition and induction studies) of SRA737.
(§1) The PK of SRA737 have been determined in the mouse, rat, dog and monkey following oral and IV administration (Table 3). […] An acceptable terminal elimination t1/2 was also observed in each species. […] The plasma protein binding of SRA737 at 1 and 10 μM was examined in mouse, minipig, monkey and human plasma using ultracentrifugation and in dog plasma (10 μM) using rapid equilibrium dialysis.

plasma protein [1] = experiment: Plasma protein binding, ultracentrifugation, minipig plasma; assay type: in vitro ADME
Method: as §1

plasma protein [2] = experiment: Plasma protein binding, ultracentrifugation, human plasma; assay type: in vitro ADME
Method: as §1

[3] = system: cryopreserved hepatocytes; experiment: Stability in cryopreserved rat hepatocytes; assay type: in vitro ADME; settings: 10 μM, after 4 hours of incubation
Method: The formation of SRA737-related metabolites was determined in cryopreserved hepatocytes from human, mouse, rat, dog, minipig and monkey samples after incubation with SRA737 at a nominal concentration of 10 μM for up to 4 hours. […] In the human hepatocyte preparation, approximately 67% of the parent remained after 4 hours of incubation compared to 75% and 7% in the rat and minipig preparations, respectively. Eight human SRA737 metabolites were observed. All SRA737 metabolites formed by human hepatocytes were also formed by monkey hepatocytes. Six metabolites were present at equal or greater abundance in the monkey.

[4] = Excretion in urine and feces, mice; assay type: in vivo; settings: 24-hour collection
Method: The excretion of SRA737 has been studied in mice and rats administered SRA737 at either 5 mg/kg IV or 10 mg/kg orally. Urine and feces were collected for a 24-hour period after dosing. In mice, renal excretion of intact SRA737 was consistently low (less than 10% of dose) after both oral and IV administration. Following IV administration of SRA737, less than 8% of the dose was recovered as intact drug in the feces while after oral administration this figure was less than 3%. Excretion of intact SRA737 was lower in the rat than in the mouse with <1% of dose excreted renally over 24 hours and less than 1.5% of dose excreted into the feces over 24 hours.

[5] = mouse, in vivo
Method: (§2) Reference source not found.6.
(§3) These findings were reversible on cessation of drug administration.
(§4) The MTD was 75 mg/kg/day (225 mg/m^2/day) in the mouse and the HNSTD was […] (350 mg/m^2/day) in the minipig.

[6] = GLP 28-day repeat oral dose toxicity and toxicokinetics, minipig; assay type: in vivo
Method: as §2, §3, §4

[7] = SRA737 monotherapy clinical study (SRA737-01), pharmacokinetics; assay type: in vivo, human
Method: A Phase 1 clinical trial was conducted in ‘all comers,’ i.e. no genetic selection was performed, to establish safety, tolerability and pharmacokinetics (“Dose Escalation Phase”). Cohorts consisting initially of a single subject received escalating doses of SRA737, starting in Cohort 1 with 20 mg/day administered orally on a continuous daily dosing schedule in 28 day cycles. the dose was escalated until the maximum tolerated dose (MTD) was identified.
Cmin was calculated at 1000 mg QD (411 ng/mL) and exceeded that determined in preclinical models to be effective. Doses ≥300 mg QD also exceeded the preclinical models to be effective.
A Dose Escalation phase employed an accelerated titration design starting at 20 mg SRA737, administered QD orally in 28-day cycles. Incremental dose escalations in single-subject cohorts were followed by a rolling-6 design once SRA737-related ≥Grade 2 toxicity was observed during Cycle 1.
The plasma pharmacokinetics of SRA737 were reproducible and generally dose concordant. […] All doses ≥300 mg QD also exceeded this threshold level.

Chk1 = target: T1, Chk1 (Homo sapiens, UniProt O14757); settings: previously found; Walton et al. Oncotarget 2016; cited from earlier work
T1 sequence (O14757 1-476): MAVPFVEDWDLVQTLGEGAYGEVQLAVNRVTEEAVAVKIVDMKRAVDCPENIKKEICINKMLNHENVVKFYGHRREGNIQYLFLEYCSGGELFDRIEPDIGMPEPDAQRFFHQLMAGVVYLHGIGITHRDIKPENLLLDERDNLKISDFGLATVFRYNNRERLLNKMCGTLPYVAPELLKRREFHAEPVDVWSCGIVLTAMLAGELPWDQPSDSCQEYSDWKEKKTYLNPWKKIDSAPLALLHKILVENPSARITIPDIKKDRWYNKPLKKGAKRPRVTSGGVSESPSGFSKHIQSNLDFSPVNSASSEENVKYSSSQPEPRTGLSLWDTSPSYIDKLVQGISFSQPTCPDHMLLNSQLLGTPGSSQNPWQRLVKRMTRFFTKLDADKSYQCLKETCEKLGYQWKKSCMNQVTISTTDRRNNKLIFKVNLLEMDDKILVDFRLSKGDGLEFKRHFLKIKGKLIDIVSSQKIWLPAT

## N#Cc1cnc(Nc2cc(NCC3CNCCO3)c(C(F)(F)F)cn2)cn1 (centres unmarked) [SRA737, 5-[[4-[[morpholin-2-yl]methylamino]-5-(trifluoromethyl)-2-pyridyl]amino]pyrazine-2-carbonitrile]
Chk1 autophosphorylation
  inhibition of genotoxicity-induced checkpoint arrest: dose-dependent inhibition
  potentiation of the cytotoxicity of genotoxic chemotherapeutic agents and targeted agents: dose-dependent potentiation
Chk1 autophosphorylation; data not shown
  inhibition of genotoxic chemotherapy-induced Chk1 autophosphorylation: potently inhibited
Single dose PK, rat
  Foral: 42%
Plasma protein [1]; 1 μM
  Percentage Bound: 85.2%
  Percentage Free: 14.9%
Plasma protein [1]; 10 μM
  Percentage Bound: 75.5%
  Percentage Free: 24.5%
Plasma protein [2]; 1 μM
  Percentage Bound: 87.7%
  Percentage Free: 12.4%
Plasma protein [2]; 10 μM
  Percentage Bound: 87.2%
  Percentage Free: 12.8%
[3]
  parent remaining: 75%
[4]; 5 mg/kg IV or 10 mg/kg oral
  renal excretion of intact SRA737: less than 10 % of dose
[4]; IV administration
  intact drug recovered in the feces: less than 8 % of dose
[4]; oral administration
  intact drug recovered in the feces: less than 3 % of dose
[5]
  changes in reproductive organs: changes in reproductive organs, particularly the testes, were also observed
  dose-dependent toxicological findings: bone marrow toxicity
[6]; minipig
  changes in reproductive organs: changes in reproductive organs, particularly the testes, were also observed
  toxicological findings in the GI tract: Toxicological findings in the GI tract were also observed
[6]; minipig pivotal study, reversible on cessation of drug administration
  dose-dependent toxicological findings: bone marrow toxicity
[7]; human, in vivo, 160 mg
  CL/F: 70.0 L/h
  Vd/F: 1390 L
[7]; human, in vivo, 300 mg
  CL/F: 81.9 L/h
  Vd/F: 1020 L
  t1/2: 8.6 h
[7]; human, in vivo, 600 mg
  CL/F: 56.9 L/h
  Vd/F: 1090 L
[7]; human, in vivo, 800 mg
  AUC(0-t): 18500 ng·h/mL
  CL/F: 39.1 L/h
  Cmax: 1880 ng/mL
  Vd/F: 596 L
  t1/2: 10.5 h
[7]; human, in vivo, 1000 mg
  AUC0-24 h: 20270 ng·h/mL
  CL/F: 44.9 L/h
  Cmax: 2098 ng/mL
  Vd/F: 704 L
[7]; human, in vivo, 1300 mg
  CL/F: 38.6 L/h
  Vd/F: 625 L
[7]; monotherapy
  doses at which Cmin exceeded that effective in preclinical models: ≥ 300 mg QD
[7]; monotherapy PK dose 160 mg (n = 1)
  Cmin: 31.7 ng/mL
[7]; monotherapy PK dose 300 mg (n = 1)
  Cmin: 41.2 ng/mL
[7]; monotherapy PK dose 600 mg (n = 4)
  Cmin: 129 ng/mL
[7]; monotherapy PK dose 800 mg (n = 38)
  Cmin: 234 ng/mL
[7]; monotherapy PK dose 1000 mg (n = 44-45)
  Cmin: 289 ng/mL
[7]; monotherapy PK dose 1300 mg (n = 3)
  Cmin: 466 ng/mL
Chk1
  inhibitor of Chk1: potent and selective inhibitor of Chk1 with limited off-target activity against other kinases
